Measurements taken from US9926297B2, “Bicyclic AZA compounds as muscarinic M1 receptor and/or M4 receptor agonists” (Heptares Therapeutics Limited, priority 2014, dated 2018).

Tests used:
[1] = molecular target: T1, human muscarinic M4 receptor (Homo sapiens, UniProt P08173); test: Alphascreen Surefire phospho-ERK1/2 functional assay, M4; format: cell-based; conditions: for EC50: read-out: pEC50 M4 (converted); for Emax: CHO, read-out: % Emax cf. ACh, M4, CHO cells stably expressing human M4
T1 construct: expressed in transfected cells
T1 sequence (P08173 1-479): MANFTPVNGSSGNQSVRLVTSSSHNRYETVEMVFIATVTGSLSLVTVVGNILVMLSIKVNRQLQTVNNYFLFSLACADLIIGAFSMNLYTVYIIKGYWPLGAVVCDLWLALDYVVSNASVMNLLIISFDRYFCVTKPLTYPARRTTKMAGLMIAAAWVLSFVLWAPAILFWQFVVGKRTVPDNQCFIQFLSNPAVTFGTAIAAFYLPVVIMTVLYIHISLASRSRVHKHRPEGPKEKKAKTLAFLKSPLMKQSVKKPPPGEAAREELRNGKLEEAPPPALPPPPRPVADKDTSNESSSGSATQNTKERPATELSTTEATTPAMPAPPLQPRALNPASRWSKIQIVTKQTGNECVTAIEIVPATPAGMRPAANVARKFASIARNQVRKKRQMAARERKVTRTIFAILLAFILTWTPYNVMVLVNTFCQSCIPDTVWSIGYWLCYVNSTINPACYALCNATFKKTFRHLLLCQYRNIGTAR

[2] = molecular target: human muscarinic M3 receptor (Homo sapiens, UniProt P20309); test: Alphascreen Surefire phospho-ERK1/2 functional assay, M3; conditions: for Emax: CHO, read-out: % Emax cf. ACh, M3, CHO cells stably expressing human M3; for EC50: pEC50 M3, CHO cells stably expressing human M3
human muscarinic M3 receptor, sequence (P20309 whole entry): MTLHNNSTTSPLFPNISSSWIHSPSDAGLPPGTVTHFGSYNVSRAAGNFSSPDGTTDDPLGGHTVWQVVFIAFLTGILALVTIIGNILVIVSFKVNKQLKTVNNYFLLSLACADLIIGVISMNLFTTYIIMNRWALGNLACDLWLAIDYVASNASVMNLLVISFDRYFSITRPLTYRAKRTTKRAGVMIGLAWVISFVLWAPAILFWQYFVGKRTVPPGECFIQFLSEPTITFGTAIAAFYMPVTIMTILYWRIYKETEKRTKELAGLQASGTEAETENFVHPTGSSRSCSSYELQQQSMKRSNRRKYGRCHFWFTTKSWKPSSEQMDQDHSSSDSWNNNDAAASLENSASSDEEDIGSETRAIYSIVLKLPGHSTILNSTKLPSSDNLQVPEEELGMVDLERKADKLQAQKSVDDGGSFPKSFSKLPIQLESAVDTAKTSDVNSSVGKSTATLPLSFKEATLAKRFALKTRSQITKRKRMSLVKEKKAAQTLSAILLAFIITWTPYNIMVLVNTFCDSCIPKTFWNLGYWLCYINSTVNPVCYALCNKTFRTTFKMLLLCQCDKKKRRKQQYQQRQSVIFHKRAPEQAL

[3] = molecular target: T2, human muscarinic M2 receptor (Homo sapiens, UniProt P08172); test: Alphascreen Surefire phospho-ERK1/2 functional assay, M2; conditions: for Emax: CHO, read-out: % Emax cf. ACh, M2, CHO cells stably expressing human M2
T2 sequence (P08172 1-466): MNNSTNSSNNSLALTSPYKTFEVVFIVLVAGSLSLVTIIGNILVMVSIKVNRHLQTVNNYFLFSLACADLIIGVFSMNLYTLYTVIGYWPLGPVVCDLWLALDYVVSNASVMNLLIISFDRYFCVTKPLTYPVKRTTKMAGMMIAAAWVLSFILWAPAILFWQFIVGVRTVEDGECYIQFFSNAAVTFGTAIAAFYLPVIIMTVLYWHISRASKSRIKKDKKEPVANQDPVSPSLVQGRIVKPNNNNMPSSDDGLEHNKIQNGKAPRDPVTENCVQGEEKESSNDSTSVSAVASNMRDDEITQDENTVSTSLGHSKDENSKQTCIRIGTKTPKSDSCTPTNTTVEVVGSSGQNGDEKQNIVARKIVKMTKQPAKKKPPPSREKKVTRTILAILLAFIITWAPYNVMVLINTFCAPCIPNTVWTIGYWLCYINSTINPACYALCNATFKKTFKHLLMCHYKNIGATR

[4] = molecular target: T3, human muscarinic M1 receptor (Homo sapiens, UniProt P11229); test: Alphascreen Surefire phospho-ERK1/2 functional assay, M1; format: cell-based; conditions: for EC50: read-out: pEC50 M1 (converted); for Emax: CHO, read-out: % Emax cf. ACh, M1, CHO cells stably expressing human M1
T3 sequence (P11229 1-460): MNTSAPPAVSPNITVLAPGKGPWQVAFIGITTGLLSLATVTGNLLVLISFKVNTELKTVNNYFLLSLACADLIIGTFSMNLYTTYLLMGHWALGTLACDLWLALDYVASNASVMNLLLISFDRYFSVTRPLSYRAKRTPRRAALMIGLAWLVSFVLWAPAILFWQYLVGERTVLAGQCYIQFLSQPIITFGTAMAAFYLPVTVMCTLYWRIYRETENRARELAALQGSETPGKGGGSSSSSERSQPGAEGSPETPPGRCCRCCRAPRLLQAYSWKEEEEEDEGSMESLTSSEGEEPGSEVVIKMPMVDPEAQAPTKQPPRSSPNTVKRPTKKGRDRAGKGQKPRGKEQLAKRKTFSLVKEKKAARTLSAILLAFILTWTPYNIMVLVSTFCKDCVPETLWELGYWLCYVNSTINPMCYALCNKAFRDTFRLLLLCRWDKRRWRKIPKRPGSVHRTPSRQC

[5] = CHO cells stably expressing human M4, phospho-ERK1/2, * = variable results
[6] = phospho-ERK1/2, * = variable results
[7] = CHO cells stably expressing human M1, phospho-ERK1/2, * = variable results

EC50 [1, 5] [µM] | Emax ([1]; relative to ACh) [%] | Emax ([2]; relative to ACh) [%] | EC50 [2, 6] [µM] | EC50 [3] [µM] | Emax ([3]; relative to ACh) [%] | EC50 [4, 7] [µM] | Emax ([4]; relative to ACh) [%] | SMILES | pEC50 M4 [1, 5] | % Emax cf. ACh, M4 ([1]; CHO cells stably expressing human M4, relative to ACh) [%] | pEC50 M3 ([2]; CHO cells stably expressing human M3, phospho-ERK1/2, * = variable results) | % Emax cf. ACh, M3 ([2]; CHO cells stably expressing human M3, relative to ACh) [%] | pEC50 M2 ([3]; CHO cells stably expressing human M2, phospho-ERK1/2, * = variable results) | % Emax cf. ACh, M2 ([3]; CHO cells stably expressing human M2, relative to ACh) [%] | pEC50 M1 [4, 7] | % Emax cf. ACh, M1 ([4]; CHO cells stably expressing human M1, relative to ACh) [%]
0.02 | 70 | 0 | > 20 | > 20 | 1 | 0.501 | 52 | CCOC(=O)N1CCC2(CC(N3CCC([C@@H]4CCCN4c4nccs4)CC3)C2)C1 (single isomer, unassigned) [2-82 Isomer 2] | – | – | – | – | – | – | – | –
0.2 | 55 | 5 | > 20 | > 20 | 4 | > 20 | 16 | CCOC(=O)N1CCC2(CC(N3CCC(N4CCC(F)(F)C4)CC3)C2)C1 (single isomer, unassigned) [2-100 Isomer 2, ethyl 2-[4-(3,3-difluoropyrrolidin-1-yl)piperidin-1-yl]-6-azaspiro[3.4]octane-6-carboxylate] | – | – | – | – | – | – | – | –
0.251 | 67 | 10 | > 20 | > 20 | 1 | 3.98 | 73 | CCOC(=O)N1CCC2(CC(N3CCC(N4CCCOC4=O)CC3)C2)C1 (single isomer, unassigned) [4-7 Isomer 2, ethyl 2-[4-(2-oxo-1,3-oxazinan-3-yl)piperidin-1-yl]-6-azaspiro[3.4]octane-6-carboxylate] | – | – | – | – | – | – | – | –
0.0251 | 100 | 7 | > 20 | > 20 | 7 | – | 39 | CCOC(=O)N1CCC2(CC(N3CCC(C4CCCN4C(=O)OC)CC3)C2)C1 (single isomer, unassigned) [2-11 Isomer 2, ethyl 2-{4-[1-(methoxycarbonyl)pyrrolidin-2-yl]piperidin-1-yl}-6-azaspiro[3.4]octane-6-carboxylate] | – | – | – | – | – | – | – | –
0.0158 | 65 | 8 | > 20 | > 20 | 6 | > 20 | 20 | CCOC(=O)N1CCC2(CC(N3CCC([C@@H]4CCCN4C(=O)CCc4ccccn4)CC3)C2)C1 (single isomer, unassigned) [2-62 Isomer 2] | – | – | – | – | – | – | – | –
0.01 | 57 | 6 | > 20 | > 20 | 9 | > 20 | 9 | CCOC(=O)N1CCC2(CC(N3CCC([C@@H]4CCCN4C(=O)OC)CC3)C2)C1 (single isomer, unassigned) [2-12 Isomer 2] | – | – | – | – | – | – | – | –
0.0126 | 100 | 27 | 7.94 | > 20 | 13 | 0.794 | 41 | CCOC(=O)N1CCC2(CC(N3CCC([C@@H]4CCCN4C(=O)CC)CC3)C2)C1 (single isomer, unassigned) [2-7 Isomer 2] | – | – | – | – | – | – | – | –
0.00631 | 113 | 5 | > 20 | > 20 | 3 | 0.158 | 89 | CCOC(=O)N1CCC2(CC(N3CCC([C@@H]4CCCN4C(=O)NC4(C)COC4)CC3)C2)C1 (single isomer, unassigned) [2-36 Isomer 2] | – | – | – | – | – | – | – | –
0.00501 | 111 | 5 | > 20 | > 20 | 5 | 0.251 | 67 | CCOC(=O)N1CCC2(CC(N3CCC([C@@H]4CCCN4C(=O)NCC(F)F)CC3)C2)C1 (single isomer, unassigned) [2-45 Isomer 2] | – | – | – | – | – | – | – | –
0.00631 | 126 | 7 | > 20 | > 20 | 80 | 0.0794 | 126 | CCOC(=O)N1CCC2(CC(N3CCC(n4ccc(C)n4)CC3)C2)C1 (single isomer, unassigned) [1-44 Isomer 2, ethyl 2-[4-(3-methyl-1H-pyrazol-1-yl)piperidin-1-yl]-6-azaspiro[3.4]octane-6-carboxylate] | – | – | – | – | – | – | – | –
0.00316 | 41 | 8 | > 20 | > 20 | 6 | > 20 | 12 | CCOC(=O)N1CCC2(CC(N3CCC([C@@H]4CCCN4C(=O)OCc4ccccn4)CC3)C2)C1 (single isomer, unassigned) [2-64 Isomer 2] | – | – | – | – | – | – | – | –
0.0126 | 101 | 5 | > 20 | > 20 | 9 | 0.316 | 37 | CCOC(=O)N1CCC2(CC(N3CCC(c4ncns4)CC3)C2)C1 (single isomer, unassigned) [1-30 Isomer 2, ethyl 2-[4-(1,2,4-thiadiazol-5-yl)piperidin-1-yl]-6-azaspiro[3.4]octane-6-carboxylate] | – | – | – | – | – | – | – | –
0.00631 | 106 | 56 | > 20 | 10 | 50 | 0.0251 | 81 | O=C(OCCF)N1CCC2(CC(N3CCC(c4ccc[nH]c4=O)CC3)C2)C1 (single isomer, unassigned) [3-3 Isomer 2, 2-fluoroethyl 2-[4-(2-oxo-1,2-dihydropyridin-3-yl)piperidin-1-yl]-6-azaspiro[3.4]octane-6-carboxylate] | – | – | – | – | – | – | – | –
– | – | – | – | – | – | – | – | CCOC(=O)N1CCC2(CC(N3CCC(C#N)(c4ccccn4)CC3)C2)C1 (single isomer, unassigned; isomer 1) [3-10 Isomer 1] | 7.1 | 71 | < 4.7 | 5 | < 4.7 | 3 | 5.9 | 42
0.01 | 104 | 6 | > 20 | > 20 | 4 | 1 | 43 | CCOC(=O)N1CCC2(CC(N3CCC([C@@H]4CCCN4C(=O)C4CCC4)CC3)C2)C1 (single isomer, unassigned) [2-9 Isomer 2] | – | – | – | – | – | – | – | –
0.002 | 122 | 8 | > 20 | > 20 | 20 | 0.00794 | 124 | CCOC(=O)N1CCC2(CC(N3CCC(c4cscn4)CC3)C2)C1 (single isomer, unassigned) [1-50 Isomer 2, ethyl 2-[4-(1,3-thiazol-4-yl)piperidin-1-yl]-6-azaspiro[3.4]octane-6-carboxylate] | – | – | – | – | – | – | – | –
0.00251 | 109 | 4 | > 20 | > 20 | 6 | 0.316 | 80 | CCOC(=O)N1CCC2(CC(N3CCC([C@@H]4CCCN4C(=S)NC)CC3)C2)C1 (single isomer, unassigned) [2-75 Isomer 2] | – | – | – | – | – | – | – | –
